According to paper PMC3005896 (Autoimmune Diseases, 2010):
Like-named read-outs stand apart in the source and are kept apart here.

Key:
[1] = tested on: CAR-induced pleurisy in CD1 male mice; conditions: 40 mg/kg suspension s.c. 24 h and 1 h before CAR, vs vehicle
PPAR-γ = PPAR-γ (Homo sapiens, UniProt P37231); conditions: data not shown
Experimental: (§1) Cells were incubated overnight with the various compounds and luciferase activity was then determined in cell lysates. Transactivation activity of the human mineralocorticoid receptor (MR) and peroxisome proliferator-activated receptors (PPAR-γ and PPAR-δ) used the fluorimetric Gene Blazer β-lactamase assay system (InVitrogen) following the manufacturer's instructions. Assays were conducted on 384-well plates using a fluorogenic substrate (CCF4-AM, InVitrogen).

[2] = tested on: glucocorticoid receptor (GR); conditions: data not shown
Experimental: as §1

[3] = humans, injection of 100–200 mg suspension formulation, for several weeks; ref Stickney et al., in preparation; cited from earlier work
[4] = tested on: LPS-induced shock in CD1 mice; conditions: for Serum levels of TNFα: male CD-1 mice, LPS 0.5 mg
Experimental: Six-week-old CD1 mice (Charles River, Calco, Italy) were kept under standard laboratory (nonspecific pathogen free) conditions at the University of Catania, School of Medicine, and were housed in a controlled environment and provided with standard rodent chow and water. Animal care and use was in compliance with all applicable regulations on protection of animals used for experimental and other scientific purposes.
To induce lethal endotoxemia, the mice were injected i.p. with 1 mg LPS (Sigma Chimica, Milan, Italy, code L6011, Lot K4096). […] In some studies (performed by Harbor Biosciences) male mice (n = 4 per group) were used and serum was taken 2 hours after LPS (0.5 mg) challenge, to measure levels of TNFα by ELISA.
All P-values of less than .05 were considered significant. For statistical analysis each group is compared to that of vehicle-treated control.

[5] = target: T1, human mineralocorticoid receptor (MR) (Homo sapiens, UniProt P08235); assay: Gene Blazer β-lactamase transactivation assay, MR; assay type: cell-based; conditions: data not shown
T1 sequence (P08235 726-984 limits assumed): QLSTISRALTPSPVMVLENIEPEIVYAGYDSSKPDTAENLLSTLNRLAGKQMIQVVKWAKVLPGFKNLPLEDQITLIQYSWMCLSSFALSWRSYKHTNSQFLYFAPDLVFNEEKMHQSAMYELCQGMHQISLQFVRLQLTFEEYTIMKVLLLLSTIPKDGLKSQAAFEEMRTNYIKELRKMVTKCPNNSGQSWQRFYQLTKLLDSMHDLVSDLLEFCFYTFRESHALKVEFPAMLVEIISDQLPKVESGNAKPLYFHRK
Experimental: as §1

in vivo = conditions: mouse
PPAR-δ = target: T2, PPAR-δ (Homo sapiens, UniProt Q03181); assay: Gene Blazer β-lactamase transactivation assay, PPAR-δ; assay type: cell-based
T2 sequence (Q03181 211-441 limits assumed): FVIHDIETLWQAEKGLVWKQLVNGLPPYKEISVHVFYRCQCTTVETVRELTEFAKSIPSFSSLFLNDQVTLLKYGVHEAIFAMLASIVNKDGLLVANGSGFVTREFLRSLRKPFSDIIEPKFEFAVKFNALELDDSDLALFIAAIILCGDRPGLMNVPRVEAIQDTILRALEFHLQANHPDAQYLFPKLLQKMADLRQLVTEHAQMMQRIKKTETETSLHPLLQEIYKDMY
Experimental: as §1

[6] = tested on: PLP(139–151)-induced EAE in female SJL/J mice
Text: Mice Female SJL/J mice (6 to 8 weeks of age; Charles River Italia, Udine, Italy) were maintained in a pathogen-free vivarium at the University of Catania, School of Medicine (Catania, Italy) receiving ad libitum sterilized food and water, and were adapted to the ambient environment for at least 7 days before the start of the study. Animal care and use was in compliance with all applicable regulations for the protection of animals used for experimental and other scientific purposes.
Disease symptoms were monitored daily and scored in a blinded manner using the following scale: 0: no illness, 1: flaccid tail, 2: moderate paraparesis, 3: severe paraparesis, 4: moribund state, 5: death. Mice were randomized to each experimental group before immunization to induce EAE. […] Statistical analysis of cumulative clinical scores was performed by ANOVA analysis for unpaired data. A P-value <.05 was considered to be statistically significant. For statistical analysis, the mice that succumbed to EAE were assigned 5 only for the day of death and then were deleted from the experimental group.

[7] = tested on: PLP(139–151)-induced EAE in female SJL/J mice; conditions: 40 mg/kg soluble formulation (cyclodextran) s.c. daily from onset
Experimental: Mice Pathogen free female SJL/J mice (6–8 weeks old) were used for these studies.
The mice were assessed daily for clinical signs of EAE according to the following scale: 0: no signs; 1: limp tail or mild hind limb weakness; 2: moderate hind limb weakness or mild ataxia; 3: moderately severe hind limb weakness; 4: severe hind limb weakness or mild forearm weakness or moderate ataxia; 5: paraplegia with no more than moderate forelimb weakness; 6: paraplegia with severe forelimb weakness or severe ataxia or moribund condition.

ERα/β = conditions: read-out: Transactivation EC50, T47D-kBluc; ERE-luciferase; cells express ERα and ERβ; mean ± SEM (n)
Experimental: as §1

[8] = soluble formulation (cyclodextran), Harbor Biosciences, unpublished observations

Sequence of PPAR-γ (P37231 238-505 limits assumed): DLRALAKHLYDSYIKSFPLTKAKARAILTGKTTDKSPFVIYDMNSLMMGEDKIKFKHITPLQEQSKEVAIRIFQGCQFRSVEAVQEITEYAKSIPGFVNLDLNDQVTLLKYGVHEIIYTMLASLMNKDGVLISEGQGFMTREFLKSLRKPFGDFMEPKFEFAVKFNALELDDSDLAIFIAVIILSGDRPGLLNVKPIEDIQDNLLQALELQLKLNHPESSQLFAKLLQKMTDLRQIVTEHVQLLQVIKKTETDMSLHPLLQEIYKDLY

## C[C@]12CC[C@H]3[C@@H](CC=C4C[C@@H](O)CC[C@@]43C)[C@@H]1CC[C@@H]2O [5-AED, androst-5-ene-3β,17β-diol]
[1]; at 4 and 5 hours
  IL-6 level in pleural rinse: significantly reduced
[1]; at 4 hours
  TNFα level in pleural rinse: significantly reduced
PPAR-γ
  Transactivation of PPAR-γ: does not transactivate
[2]
  Transactivation of human glucocorticoid receptor: does not transactivate
[3]
  Sustained serum levels of 5-AED: ~ 30 ng/mL
[4]; 0.4 mg/kg s.c.
  Serum levels of TNFα: not effective
[4]; 4.0 mg/kg s.c.
  Serum levels of TNFα: not effective
[4]; 40 mg/kg s.c. given 4 hours after LPS, data not shown
  Lethality: 100%
[4]; 40 mg/kg s.c. given 8 hours after LPS, data not shown
  Lethality: 100%
[4]; 40 mg/kg s.c. given 24 hours after LPS, data not shown
  Lethality: 100%
[4]; 40 mg/kg s.c. given 24 hours before LPS (1 mg i.p.), 72 h, vehicle 100%
  Lethality: 50%
[4]; 40 mg/kg suspension s.c., vs vehicle, P < .05
  Serum levels of TNFα: significantly (P < .05) reduced
[5]
  Transactivation of human mineralocorticoid receptor: does not transactivate
In vivo
  Cmax: < 5000 ng/mL
In vivo; 40 mg/kg
  Cmax: ~100 ng/mL
  concentration at 96 h: ~10 ng/mL
PPAR-δ; data not shown
  Transactivation of PPAR-δ: does not transactivate
40 mg/kg as suspension, mice
  Time to Cmax: within one hour
[8]
  Time to Cmax: within minutes
  Time to complete clearance: 8 to 12 h
[6]; 0.4 mg/kg suspension s.c., after day 17
  Mortality: 6/10
[6]; 0.4 mg/kg suspension s.c., surviving mice only
  Cumulative disease score: 14.5 ± 3.7
[6]; 4 mg/kg suspension s.c.
  Lethality: No lethality
[6]; 4 mg/kg suspension s.c. from Day 8 to Day 30, trend, vehicle 25.4 ± 9.3
  Cumulative disease score: 18.1 ± 9.9
[6]; 40 mg/kg suspension s.c.
  Lethality: No lethality
[6]; 40 mg/kg suspension s.c. from Day 8 to Day 30, vehicle 25.4 ± 9.3
  Cumulative disease score: 14.4 ± 9.1
[6]; all groups (0.4, 4.0, 40 mg/kg)
  Incidence of EAE: 100%
[6]; suspension s.c.
  Minimally effective dose: 4 to 40 mg/kg
[7]
  EAE clinical score vs vehicle: no significant differences

## CCCc1c(OCCCOc2ccc(OCC(=O)O)cc2)ccc(C(C)=O)c1O [L165,041, reference compound]
PPAR-δ; reference compound
  EC50: 1.1 nM
